Data as given in US12616753B2, “HSP70 inhibitors and methods of using same” (THE WISTAR INSTITUTE, priority 2020, dated 2026).

Key:
[1] = test system: CRC cell lines (SW620, HT-29, HCT 116+/−p53, RKO, and LS411N); assay: Alamar Blue cell viability assay, human CRC panel; assay type: cell-based; details: SW620, 72 hours
Experimental: FIGS. 4A-4F show AP-4-139B is efficacious as a single agent against human CRC in vitro and in vivo. FIG. 4A: Three CRC cell lines (HT-29, LS411N, and SW620) were treated with 10 μM of PET-16 or AP-4-139B for 48 hours. Cell were then subjected to viability assays using Trypan Blue exclusion. *** p<0.001. […] FIGS. 4B-4C: A panel of six CRC cell lines (SW620, HT-29, HCT 116+/−p53, RKO, and LS411N) were plated at a density of 1,000 cells per well in 96-well plates. The next day, cells were treated with the indicated inhibitors for 72 hours. Cells were then subjected to the Alamar Blue cell viability assays. Shown are representative IC50 values of an average of six technical replicates and two biological replicates. FIG. 4D: 2.5×10^6 HT-29 cells were injected subcutaneously into the right flank of NSG mice. Once tumors reached an approximate volume of 100 mm^3, mice were separated randomly into two groups: control vs. AP-4-139B. Mice were treated with 12.5 mg/kg AP-4-139B three times a week. All mice were euthanized 22 days after the start of treatment. Tumor volumes were recorded using digital calipers and using the formula v=length×width^2×0.52. *** p<0.001. n=10 mice per group. FIG. 4E: Immunohistochemistry (IHC) analysis of HT-29 xenograft tumors treated with AP-4-139B. Shown are representative images (4-6 random fields of view per condition) of Ki67 (proliferation) and Cleaved Lamin A (cell death). n=4 mice per group. Scale bar=100 μm. Respective IgG antibody was used as the negative control.

MC38 and HT-29 cells = assay: Extracellular ATP release (CellTiter-Glo); assay type: cell-based; details: MC38 cells, increasing concentrations, 3 hours
Experimental: FIG. 6A: 1×10^6 MC38 cells were injected subcutaneously into the right flank of 6-8-week-old male C57Bl/6 mice. Once tumors reached an approximate volume of 100 mm^3, mice were treated with AP-4-139B (10 mg/kg) every 48 hours. 20 days after the start of treatment, tumors were excised, weighed, minced and digested. Tumor-infiltrating and splenic conventional CD4 (cCD4) (Live CD45^+ DUMP^− CD3^+CD4^+Foxp3^−), Tregs (Live CD45^+ DUMP^− CD3^+CD4^+Foxp3^+), CD8 (Live CD45^+ DUMP^− CD3^+CD8^+) T-cells, and Dendritic Cells (Live CD45^+ DUMP^− CD3^−CD11c^+MHCII^+) numbers were assessed by flow cytometry. * p<0.05, n.s. not significant. n=8 mice per group. FIG. 6B: MC38 and HT-29 cells were treated with the indicated concentrations of AP-4-139B for either 8 or 24 hours; media was collected and subjected to WB for HMGB1. Data shown are representative of three technical replicates. FIG. 6C: MC38 and HT-29 cells were treated with the indicated concentrations of AP-4-139B for three hours and then assayed for extracellular ATP release. Each graphical representation indicates the mean±the standard deviation of three independent experiments relative to control (DMSO-treated) cells.
FIG. 6D: MC38 cells were treated with 5 μM AP-4-139B for 24 hours and subjected to flow cytometry, using Alexa488-tagged calreticulin antibody. *** p<0.001, n=4 biological replicates performed in duplicate. FIG. 6E: MC38 cells were treated with increasing concentrations of AP-4-139B, G-TPP, 17-AAG or Metformin for 3 hours and then assayed for extracellular ATP release. Three independent cultures were assayed for each treatment, and DMSO-treated cells were used as internal controls. Error bars represent standard deviation (SD).
The XF Cell Mito Stress Test was performed. Briefly, HT-29 (10,000 cells/well), IMR90 (15,000 cells/well), and 1205Lu (15,000 cells/well) were plated in Seahorse 96-well cell culture microplates, treated with the respective inhibitors for 24 hours, and subjected to the Seahorse XF Cell Mito Stress Test, according to the manufacturer's protocol (Agilent Technologies). For extracellular HMGB1 release, 1×10^6 MC38 cells were plated in 10-cm dishes. The next day, cells were treated with the indicated concentrations of AP-4-139B for 8 or 24 hours in serum-free media. Media was collected and spun down at 2,000 rpm for 5 minutes to pellet any remaining cells or debris. Media was then transferred to Amicon Ultra 15, 10K tubes and spun down at 4,000 rpm for 45 minutes, according to the manufacturer's protocol. […] For extracellular ATP release, ATP was measured using the CellTiter-Glo Kit (Promega catalog #G7570). […] 10 μl of CellTiter-Glo Reaction Mix was then mixed with 10 μl of culture media; the luminescence signal was detected using a luminometer.

full length human HSP70 = molecular target: T1, full length human HSP70 (Homo sapiens, UniProt P0DMV8); assay: HSP70 mediated ATPase assay (Transcreener ADP-FI); assay type: biochemical
T1 construct: Five μL of 30 nM full length human HSP70 in assay buffer
T1 sequence (P0DMV8 whole entry): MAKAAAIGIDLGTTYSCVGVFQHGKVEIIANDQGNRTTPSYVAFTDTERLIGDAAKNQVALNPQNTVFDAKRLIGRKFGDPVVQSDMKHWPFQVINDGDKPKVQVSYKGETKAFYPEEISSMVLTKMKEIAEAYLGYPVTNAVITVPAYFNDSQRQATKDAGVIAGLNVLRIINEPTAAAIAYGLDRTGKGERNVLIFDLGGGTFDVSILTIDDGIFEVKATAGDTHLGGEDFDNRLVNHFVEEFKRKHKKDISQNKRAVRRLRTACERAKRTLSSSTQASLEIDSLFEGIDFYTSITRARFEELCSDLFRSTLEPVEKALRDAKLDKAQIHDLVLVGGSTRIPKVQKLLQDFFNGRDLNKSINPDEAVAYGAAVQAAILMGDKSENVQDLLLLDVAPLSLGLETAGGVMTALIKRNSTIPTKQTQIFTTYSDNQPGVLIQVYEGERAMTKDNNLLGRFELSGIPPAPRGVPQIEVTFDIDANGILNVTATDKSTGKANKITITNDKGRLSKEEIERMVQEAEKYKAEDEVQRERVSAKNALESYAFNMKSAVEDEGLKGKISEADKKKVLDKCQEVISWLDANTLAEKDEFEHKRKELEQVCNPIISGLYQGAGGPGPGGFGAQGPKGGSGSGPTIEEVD
Experimental: FIGS. 1A-1D show ATPase inhibition and direct binding of a novel HSP70 inhibitor. FIG. 1A: Compounds AP-3-97 and AP-4-139B are direct inhibitors of HSP70. HSP70 mediated ATPase activity was assessed using the TRANSCREENER® ADP-FI assay. Five microliters of 30 nM purified human HSP70 in assay buffer was added to test compounds for 30 minutes, followed by addition of excess ATP. After 15 minutes, reactions were stopped and fluorescence was assessed on a plate reader. Data are normalized to percent inhibition, where 100% is the value in the absence of HSP70, and 0% is the value in the presence of HSP70. Compounds shown include PET-16 (positive control) and the novel HSP70 inhibitors AP-3-97 and AP-4-139B. VY-3-277 was used as a negative control. FIG. 1B: Compound AP-4-139B binds HSP70. Whole cell extracts (WCE) from H1299 cells were incubated with 10 μM Biotin or with a Biotin-labeled variant of AP-4-139B (Biotin-AP-4-139B) for 5 hours. Biotin-AP-4-139B containing complexes were captured using NeutrAvidin resins and separated by SDS-PAGE. The Coomassie-stained protein band of approximately 70 kDa was excised and subjected to tryptic digestion and liquid chromatography-tandem mass spectrometry, and identified to be HSP70. FIG. 1C: H1299 cells were pre-treated with 10 μM of VY-3-277, PET-16, or AP-4-139B for 1 hour prior to the addition of 10 μM Biotin-AP-4-139B for 5 hours. Biotin-AP-4-139B containing complexes were captured by NeutrAvidin resins and immunoblotted using the indicated antibodies following SDS-PAGE. Whole cell extracts (WCE) were examined for the expression of HSP70 (input) and GRP75 (input) by Western blot analysis. FIG. 1D: Compound AP-4-139B directly binds purified human HSP70. […] Data were analyzed using the evaluation software from Biacore and the resulting sensograms were exported and re-plotted in GraphPad Prism.
HSP70 mediated ATPase activity was measured using the Transcreener® ADP-FI assay (BellBrook Labs). […] After 30 minutes, fluorescence at 560/620 nm was measured using the Envision plate reader. […]

[2] = molecular target: N-terminal HIS tagged HSP70 (Homo sapiens, UniProt P0DMV8); assay: Small molecule binding to HSP70 using SPR (Biacore T200)
Sequence of N-terminal HIS tagged HSP70 (P0DMV8 whole entry): as above
Experimental: SPR experiments were conducted using the Biacore T200. Approximately 20,000 RU of N-terminal HIS tagged HSP70 was immobilized on a multi-dentate NTA derivatized linear carboxylate sensor chip (NICH1500M, Xantec Bioanalytics). The running buffer was PBS containing 2 mM MgCl2, 0.05% Tween, and 5% DMSO. Test compounds were diluted at 20× final concentration in 100% DMSO and then diluted into running buffer without DMSO so that the DMSO concentrations in both the sample and the running buffer were similar. Flow rate was 30 μL/min, contact time for each sample concentration was 30 seconds, followed by a 60 second dissociation time. Data were analyzed using the Biacore evaluation software and the resulting sensograms exported and re-plotted in GraphPad Prism.
The next studies sought to determine whether AP-4-139B interacts directly with HSP70. To accomplish this, full-length His-tagged human HSP70 was used, and it was immobilized on a high affinity poly-Ni-NTA sensor chip for surface plasmon resonance experiments on a Biacore T200. This HSP70-loaded chip was incubated with AP-4-139B or the negative control VY-3-277. As a positive control the adenosine-derived HSP70 inhibitor Ver-155008 was used (Massey et al., Cancer Chemother Pharmacol. 2010 August; 66(3):535-45).

Row | Compound | sensitivity of SW620 cells [1] | ATP release, comparison of compounds (MC38 and HT-29 cells) | also measured
1 | O=c1[nH]cc(F)c(=O)[nH]1 [5-FU, 5-fluoro-uracil] | highly resistant | – | –
2 | C=CCNC1=C2C[C@@H](C)C[C@H](OC)[C@H](O)[C@@H](C)/C=C(\C)[C@H](OC(N)=O)[C@@H](OC)/C=C\C=C(/C)C(=O)NC(=CC1=O)C2=O [17-AAG, reference compound] | – | induced ATP release, albeit to a lesser extent | –
3 | O=S(=O)(NCCCCCC[P+](c1ccccc1)(c1ccccc1)c1ccccc1)c1ccc2c(c1)oc1ccccc12 [AP-3-97, (6-(Dibenzo[b,d]furan-3-sulfonamido)hexyl)triphenylphosphonium bromide] | – | – | inhibition of HSP70 ATPase activity (in words) (full length human HSP70): markedly superior potency
4 | N#Cc1ccc(COC[C@H]2O[C@@H](n3c(NCc4ccc(Cl)c(Cl)c4)nc4c(N)ncnc43)[C@H](O)[C@@H]2O)cc1 [Ver-155008, reference compound] | – | – | binding to sensor chips loaded with HSP70 [2]: reproducibly bound in concentration-dependent manner
5 | CN(C)C(=N)N=C(N)N [metformin, reference compound] | – | induced ATP release, albeit to a lesser extent | –
6 | O=C1[O][Pt]2([NH][C@@H]3CCCC[C@H]3[NH]2)[O]C1=O [oxaliplatin] | highly resistant | – | –
